How the values were obtained:
[1] = system: MM3MG-ESR1mut (Y537N, Y537S, D538G); assay: Response of MM3MG-ESR1mut cells to standard endocrine therapies; type: cell-based, mouse; conditions: data not shown
Method: Using DNA deep-sequencing technology, recent studies have identified several conserved mutations to the […] of ESR1 in a significant proportion (˜30-40%) of endocrine-resistant metastatic ER+ breast cancer patients. As no established models of endocrine-resistant ER+ breast cancer existed in immunocompetent mice, an ER+ endocrine resistant breast cancer cell line model was generated that would grow in immune competent syngeneic animals. MM3MG cells were artificially transformed with wild-type or mutated human ESR1 (Y537N, Y537S, D538G).
Therefore, the established murine breast cancer cell lines, MM3MG-ESR1mut (Y537N, Y537S, D538G), simulate patients' metastatic ER+ breast cancers, that are endocrine-resistant, having ESR1 gene mutation, and behave more aggressively.

[2] = system: 4T1 tumors; conditions: combined with thermal ablative focused ultrasound; CD8 and CD4 T cell-dependent; cited from earlier work
[3] = system: pre-treated locally advanced or recurrent TNBC; assay: Single arm, prospective clinical trial of intratumoral pIL-12 (TAVO) monotherapy (OMS-140); type: in vivo, human; conditions: one patient previously unresponsive to anti-PD1; after 1 cycle of IL-12 treatment and 3 months of therapy
Method: The clinical safety of the therapy was tested in a single arm, prospective clinical trial of intratumoral pIL-12 (TAVO) monotherapy (OMS-140) in pre-treated locally advanced or recurrent TNBC.

## CC/C(=C(\c1ccccc1)c1ccc(OCCN(C)C)cc1)c1ccccc1 [Tamoxifen]
[1]
  sensitivity of the cells to standard endocrine therapies: completely resistant

## Nc1ccn([C@@H]2O[C@H](CO)[C@@H](O)C2(F)F)c(=O)n1 [gemcitabine]
[2]
  tumor control and survival of mice: enhanced tumor control and improved survival

## nivolumab
[3]
  clinical response of lung metastases: profound clinical response

— patent US20250205467A1, “SYSTEMS AND METHODS FOR THE TREATMENT OF CANCER USING ULTRASOUND” (Duke University, priority 2022, published 2025)
